Patent US10450570B2, “Compositions and methods for controlling vasculature” (YALE UNIVERSITY, priority 2016, dated 2019)

Key:
[1] = tested on: orthotopic Panc02 tumors; test: Murine orthotopic pancreatic tumor model, peritumoral lymphatics (LYVE1); format: in vivo, mouse; settings: oral, 30 mg/kg/day, compared to vehicle controls
Protocol: The murine pancreatic tumor cell line Panc02 was obtained from Prof. Wiedenmann (Charité University Hospital, Berlin). 1×10^6 tumor cells were injected subcapsularly in the head region of the pancreas of anaesthetized female C57Bl/6 mice (7-9 weeks old, Charles River, France) using a 30-gauge needle. At day 3 after tumor inoculation, tumor-bearing mice were treated daily with SSR (30 mg/kg/day) or vehicle (0.6% methylcellulose) via oral gavage. At day 9, primary tumors were removed, weighted, and tumor volumes (V) were calculated using the formula V=0.52×(a^2×b), where a represents the smallest tumour diameter and b represents the largest tumour diameter. The incidence of tumor invasion into adjacent organs, hemorrhagic ascites, and regional celiac and mesenteric lymph node metastases were recorded, and confirmed by immunohistochemistry on paraffin sections. Paraffin-embedded […] sections were prepared and used for immunohistochemistry using the following antibodies: anti-LYVE1 (Upstate-Cell Signaling Solutions, Bio-connect, Huissen, The Netherlands) and anti-VEGFR3 (eBiosciences). The lymph vessel area in the peritumoral area was analysed using the KS300 software (Zeiss).

[2] = tested on: zebrafish; test: Lymphatic development in zebrafish embryos; format: in vivo; settings: 0.25 μM, 53 hpf Tg (fli1a:EGFP) embryos, vs DMSO
[3] = tested on: HDLECs; test: Glycolytic flux measurement (5-3H-glucose); format: cell-based, human
Protocol: (§1) Glycolysis was measured as previously described. Briefly, subconfluent HDLECs cultured in 12-well plates were incubated with 1 ml/well EBM2 medium (containing appropriate amount of serum and supplement) with 80 μCi/mmol 5-^3H-glucose (Perkin Elmer) for 2-3 hr. Then 0.8 ml/well medium was transferred into glass vials with hanging wells and filter papers soaked with H2O. After incubation in a cell culture incubator for at least 2 days to reach saturation, filter papers were taken out and the amount of evaporated ^3H2O was measured in a scintillation counter. Glucose oxidation, glutamine oxidation and fatty acid oxidation were measured essentially as reported. For measurement of glucose uptake, HDLECs were incubated with 2-[1-^14C]-deoxy-D-glucose (2.5 μCi/ml, Perkin Elmer) for 10 min. before PBS washing (at least 3 times to get rid of all radioactive medium) and then lysis with 500 μL 0.1 N NaOH. 400 μl NaOH cell lysate for each sample was transferred to scintillation vials containing scintillation liquid and measured.

[4] = tested on: HDLECs; test: Glucose uptake measurement (2-[1-14C]-deoxy-D-glucose); format: cell-based, human
Protocol: as §1

[5] = tested on: HDLECs; test: Mass spectrometry of glycolytic metabolites and ATP; format: cell-based, human
Protocol: HDLECs were quenched by a rapid wash with ice-cold PBS and then collected in 150 μl of an ice-cold solution containing 20% methanol, 0.1% formic acid, 1 mM phenylalanine, 3 mM NaF and 100 μM EDTA. ^2H4-Taurine (10 μM, CDN Isotopes) was used as a loading control. All the samples were lyophilized and resuspended in 50 μL of water prior the LC-MS/MS analysis. Samples were injected onto a Cogent Diamond Hydride™ column (2.2 μm particle size, 2.1 mm×10 cm) at a flow rate of 0.5 mL/min. Glycolytic intermediates were eluted isocratically with a 95% aqueous/5% organic solvent mixture. The aqueous solution contained 15 mM ammonium formate. The organic solution contained 60% acetonitrile, 35% isopropyl alcohol and 15 mM ammonium formate. Samples were ionized by electrospray into an ABSCIEX 5500 QTRAP equipped with a SelexION for differential mobility separation (DMS) and acquired using multiple reaction monitoring (MRM) in negative mode, as described previously. DMS-based separation of fructose-6-phosphate from glucose-6-phosphate, as well as the separation of ATP, ADP and AMP nucleotides, was achieved using no modifier. Isopropyl alcohol was used as modifier for the DMS-based separation of the remaining glycolytic intermediates. […]

[6] = tested on: HK2 and other glycolytic enzymes in HDLECs; test: Western blot of glycolytic enzyme expression in HDLECs; format: cell-based, human; settings: protein
Protocol: (§2) Human dermal lymphatic endothelial cells (HDLECs, HMVEC-dLyNeo-Der Lym Endo EGM-2MV) and Pooled human umbilical vein endothelial cells (HUVECs) were purchased from Lonza and cultured in EBM2 basal medium with EGM-2 MV BulletKit. Both cell types were tested negative for mycoplasma in Lonza. Culture medium was changed every the other day. Tissue culture plates were coated with 0.1% gelatin (Sigma) for 30 min at 37° C. and washed with Dulbecco's Phosphate-Buffered Saline (Life Technologies) before cell plating. For siRNA-mediated gene knockdown, FGFR1 siRNA (ON-TARGETplus human FGFR1 siRNA, Dharmacon; Hs_FGFR1_6, Qiagen), FGFR3 siRNA (Hs_FGFR3_6, Qiagen), HK2 siRNA (s6562 human HK2 siRNA, Life Technologies), c-Myc siRNA (ON-TARGETplus human Myc siRNA, Dharmacon), AllStar negative control siRNA (Qiagen), and ON-TARGETplus Non-targeting pool (Dharmacon) were transfected by lipofectamine RNAimax reagent (Life Technologies). Human FGF2 was provided by Kaken Pharmaceutical Co, Ltd (Japan) and ordered from Peprotech. Human VEGFC, VEGFD, IGF1, IGF2 and PDGFBB were purchased from Peprotech. To assay the effect of FGFR1 knockdown on glycolytic enzyme expression, HDLECs, transfected with control or FGFR1 siRNA 3 days in advance, were replated and collected for protein analysis 24 hr later when the cell confluency reached ˜80%. […] ImageJ was used for densitometry quantification of western blot bands.

[7] = tested on: HUVECs; test: Glycolytic flux measurement in HUVECs; format: cell-based, human
[8] = tested on: HK2 and other glycolytic enzymes in HUVECs; test: Western blot of glycolytic enzyme expression in HUVECs; format: cell-based, human
Protocol: as §2

[9] = tested on: HDLECs; test: Three-dimensional bead sprouting assay; format: cell-based, human; settings: control siRNA HDLEC-coated beads
Protocol: HDLECs were trypsinized and mixed with collagen-coated Cytodex® microcarrier beads (Sigma) in a ratio of 2500 beads to 1×10^6 cells in warm EGM-2 medium in a 15 ml falcon tube. The mixture was incubated at 37° C. for 4 hr., with shaking every 20 min. to ensure even coating of the beads. After 4 hr., the coated beads were transferred to a 6-well plate in 2 ml of EGM-2 medium per well and incubated at 37° C. overnight. The next day, coated beads were embedded into a fibrinogen gel. For each well of a 24-well plate, 300 μl of 3 mg/mL fibrinogen in PBS was used, along with 100 μg/ml of aprotinin (Sigma) and 1.5 unit/ml of thrombin (Sigma). Approximately 250 coated beads were embedded in each well. The plate was then incubated at 37° C. for one hr. to generate a clot. After the gel solidified, human lung fibroblasts in EGM-2 medium were seeded on top at a concentration of 20,000 cells/well. The medium was changed every other day (full EGM-2 medium with 200 ng/mL of FGF2), and the plates were imaged on day 6 using a spinning disk confocal microscope (Perkin Elmer). ImageJ was used to measure the sprout length for the data analysis.

[10] = tested on: mouse cornea; test: Corneal lymphangiogenesis model; format: in vivo; settings: FGF2-containing pellets implanted, 1 week
Protocol: Slow-releasing pellets containing FGF2 were made as previously described (Tang, Z. et al. JoVE, (2011)). Surgery to implant the pellets into the mouse cornea was performed as reported (Cao, R. et al. Nature protocols 6, 817-826, (2011)). Adult Prox1-CreER^T2(KI); HK2^flox/flox and control mice were i.p. injected with tamoxifen (150 μg/g body weight) every the other day (seven injections total) before the cornea surgery. 1 week after the pellet implantation, eyeballs were harvested for cornea dissection and immunostaining with LYVE1 (Angiobio, #11-034) and PECAM1 (BD Pharmigen, #553370) antibodies and then used for imaging (spinning disk confocal microscopy) and quantification analysis (ImageJ).

[11] = tested on: Myc expression in HDLECs; test: Western blot of Myc expression in HDLECs; format: cell-based, human
Protocol: as §2

[12] = tested on: Myc binding to the HK2 E-boxes in HDLECs; test: ChIP-qPCR of Myc binding to the HK2 gene; format: cell-based, human
Protocol: ChIP assays were performed using SimpleChIP® Plus Enzymatic Chromatin IP Kit (Cell Signaling) according to manufacturer's protocol with some minor modifications. Basically cells cultured on 20-cm dishes were fixed for 10 min by adding 37% formaldehyde solution to the culture medium to a final concentration of 1%. Fixation was quenched with glycine for 5 min at room temperature. Cells were washed twice with ice-cold PBS, scraped into 2 ml PBS, and centrifuged at 5,000 rpm for 10 min. The cell pellets from two 20-cm dishes were combined and lysed in 1 ml lysis buffer. The lysate was then centrifuged at 5,000 rpm for 5 min at 4° C. and the pellet was resuspended in 100 μl nuclease digestion buffer. The DNA was digested with 0.5 μl of Micrococcal Nuclease for 20 min at 37° C. to a length of approximately 150-900 bp (checked by agarose gel electrophoresis). Lysates were centrifuged and the pellet was resuspended in 500 μl ChIP buffer and sonicated for 3×30 s at power level 2 and 40% constancy. […] The amount of precipitated DNA from each sample was quantified by qPCR using primers flanking the Myc binding element in the HK2 gene. The reading was normalized to that of DNA purified from the previously saved cross-linked chromatin (2% input). The reading by DNA from IP using Myc antibody against that from IgG IP indicated the antibody efficiency for ChIP assay. […]

[13] = tested on: Myc expression in HUVECs; test: Western blot of Myc expression in HUVECs; format: cell-based, human
Protocol: as §2

COc1c(C)c(C(=O)c2ccc(N)c(C(=O)[O-])c2)n2ccccc12.[Na+] [SSR128129E]
lymphatic vasculature in the peri-tumoral area (LYVE1) [1]: significant reduction of the lymphatic vasculature in the peri-tumoral area

Cc1c[nH]c(/C=C2\C(=O)Nc3ccccc32)c1CCC(=O)O [SU5402]
lymphatic development in zebrafish (parachordal line length) [2]: impairs lymphatic development in zebrafish

FGF2: Human FGF2 provided by Kaken Pharmaceutical and ordered from Peprotech
glycolytic flux [3]: doubled | glucose uptake [4]: significantly increased glucose uptake | ATP production [5]: increased | steady-state levels of glycolytic metabolites and lactate [5]: all increased by FGF2 stimulation | glycolytic enzyme (HK2) expression [6]: robust increase in HK2 expression, with minimal changes of other enzymes' expression | glycolysis in HUVECs [7]: enhanced glycolysis | HK2 protein expression in HUVECs [8]: selectively induced HK2 expression albeit to a lesser extent than in LECs | sprouting response [9]: induced a strong sprouting response | lymphangiogenesis in the mouse cornea [10]: induced robust stimulation of lymphangiogenesis | Myc protein expression [11]: increased Myc protein expression | amount of Myc binding to the HK2 E-boxes [12]: increased by FGF2 treatment | Myc expression in HUVECs [13]: increased Myc expression

IGF1: insulin-like growth factor 1, purchased from Peprotech
glycolytic flux [3]: no effect

IGF2: insulin-like growth factor 2, purchased from Peprotech
glycolytic flux [3]: reduced flux
